Experimental findings from publication PMC6896172, “Successful Targeting of the Warburg Effect in Prostate Cancer by Glucose-Conjugated 1,4-Naphthoquinones” (Cancers, 2019) are described below.

Each structure is given as a SMILES string. pIC50: −log10 of the molar value.

Data set [1] deals with PNT2 cells. The data set is described as follows: MTT cytotoxicity assay in PNT2 cells. The class given is cell-based, human. Conditions: 48 h of treatment. The text has this: For general experiments human prostate cancer cell lines PC-3 and DU145 (docetaxel-resistant, androgen-independent, AR-FL(−), AR-V7(−)), 22Rv1 and VCaP (docetaxel-sensitive, androgen-independent, AR-FL(+), AR-V7(+), and LNCaP (docetaxel sensitive, androgen-dependent, AR-FL(+), AR-V7(−) were used. PC-3, 22Rv1, LNCaP cells as well as the human prostate non-cancer cells PNT2 and RWPE-1 were purchased from ATCC (Manassas, VA, USA). VCaP were purchased from ECACC (Salisbury, UK). The human fibroblast cell line MRC-9, the human embryonic kidney cell line HEK 293T, as well as the human umbilical vascular endothelial cell line HUVEC were kindly donated by Prof. Dr. Dr. med. Sonja Loges (University Medical Center Hamburg-Eppendorf, Hamburg, Germany). Cells were cultured according to the manufacturers’ instructions and were recently authenticated by a commercial service (Multiplexion, Heidelberg, Germany). Culture conditions are described in the Supplementary Information.
(§1) MTT (3-(4,5-dimethylthiazol-2-yl)-2,5-diphenyltetrazolium bromide) cytotoxicity assay was used for the evaluation of cytotoxicity of the compounds or their combinations. Experiments were performed as previously described. In brief, 6000 cells/well were seeded in 96-well plate, incubated overnight, and treated with the drugs in 100 µL/well of 10% FBS/RPMI media containing 2 g/L of D-(+)-glucose for 48 h, unless otherwise stated. For 2 h treatment the cells were treated with the drugs for 2 h in the culture media, then the media was exchanged to fresh drug-free media (100 µL/well) containing MTT reagent and the further steps were performed as previously described.
Table S4. Cytotoxic activity of the synthesized compounds. Cytotoxicity was determined in human prostate cancer PC-3 cells versus human prostate non-cancer
PNT2 cells after 48 h of treatment, as well as its ratio. IC50 was evaluated using MTT assay. SI–selectivity index. #–the IC50s in both cell lines were >100 µM.
Anisomycin was used as a reference substance.
No Formula IC50(PC-3) IC50(PNT2) SI […]
For orientation: Formazan colour is commonly taken as a measure of viable cells.

Data set [2] has as its system MRC-9 cells. The data set is described as follows: MTT cytotoxicity assay in MRC-9 cells. Conditions: Homo sapiens, MRC9, 48 h of treatment, non-cancer. The class given is cell-based. The protocol: (§2) Dr. Dr. med. Sonja Loges (University Medical Center Hamburg-Eppendorf, Hamburg, Germany). Cells were cultured according to the manufacturers’ instructions and were recently authenticated by a commercial service (Multiplexion, Heidelberg, Germany). Culture conditions are described in the Supplementary Information.
as §1

Data set [3] concerns HUVEC cells. The data set is described as follows: MTT cytotoxicity assay in HUVEC cells. The class given is cell-based. Conditions: Homo sapiens, 48 h of treatment, non-cancer. As to the method: as §2, §1
Data set [4] has as its system VCaP cells. The data set is described as follows: MTT cytotoxicity assay in VCaP cells. The class given is cell-based. Conditions: Homo sapiens, 48 h of treatment, cancer. As to the method:
as §2, §1

Data set [5] concerns DU145 cells. The data set is described as follows: MTT cytotoxicity assay in DU145 cells. The class given is cell-based. Conditions: Homo sapiens, DU-145, 48 h of treatment, cancer. As to the method: as §2, §1
Data set [6] concerns 22Rv1 cells. The data set is described as follows: MTT cytotoxicity assay in 22Rv1 cells. The class given is cell-based, human. Conditions: for pIC50: Homo sapiens. The protocol: as §2, §1
In data set [7] the test system is LNCaP cells. The data set is described as follows: MTT cytotoxicity assay in LNCaP cells. The class given is cell-based. Conditions: Homo sapiens, 48 h of treatment, cancer. As to the method: as §2, §1
Data set [8] deals with 22Rv1 cells. The data set is described as follows: Trypan blue exclusion viability assay. It counts as cell-based. Conditions: Homo sapiens, 48 h of treatment. The protocol:
The in vitro effect of the drugs on cell viability and proliferation was evaluated using trypan blue exclusion assay as described before with minor modifications. In brief, cells (0.2 × 10^6 cells/well) were seeded in 12-well plates, incubated overnight, the media was replaced with fresh media (1 mL/well) and treated with the drugs for 48 h. Cells were harvested by trypsination and the viability was measured using trypan blue staining and Beckman Coulter Vi-CELL (Beckman Coulter, Krefeld, Germany).

Data set [9] has as its system 22Rv1 cells. The data set is described as follows: Intracellular ROS (CM-H2DCFDA, flow cytometry). The class given is cell-based, human. Conditions: 2 h of treatment. As to the method:
Intracellular ROS levels were estimated using the ROS-sensitive CM-H2DCFDA reagent (Cat. No. C6827, Molecular probes, Invitrogen, Eugene, OR, USA) as described before. In brief, 22Rv1 cells were seeded in 12-well plates (0.2 × 10^6 cells/well in 1 mL/well of media) and incubated overnight. The media was changed into freshly made pre-warmed 4 µM CM-H2DCFDA/PBS (0.5 mL/well) and incubated for 30 min (37 °C, 5% CO2, in the dark). Then, the CM-H2DCFDA solution was exchanged with 1 mL/well of pre-warmed PBS containing the drugs or H2O2 (positive control) at the indicated concentrations. After 2 h of incubation the cells were trypsinized and immediately analyzed by flow cytometry technique according to the manufacture’s protocols.
Background: A flow cytometer gives signals particle by particle.

Data set [10] concerns 22Rv1 cells. The data set is described as follows: Mitochondrial membrane potential assay (JC-1, flow cytometry). The class given is cell-based, human. Conditions: 2 h of treatment. As to the method:
The loss of mitochondrial membrane potential (Δψ) was measured by flow cytometry technique using staining with Δψ-sensitive dye JC-1 (5,5′,6,6′-tetrachloro-1,1′,3,3′-tetraethylimidacarbocyanine iodide). Cells were seeded in 12-well plates (100 × 10^3 cells/well in 1 mL/well) and incubated overnight. Then, the media was changed to PBS (1 mL/well) containing the investigational drugs. After 2 h of incubation (37 °C, 5% CO2, in the dark) the cells were trypsinized, pelleted, resuspended in 100 µL of 2 µM JC-1/PBS, incubated for 1 h (37 °C, 5% CO2, in the dark) and Δψ loss was measured by flow cytometry technique.

The test system of data set [11] is 22Rv1 cells. The data set is described as follows: Cell fractionation followed by Western blotting. Conditions: 48 h. The class given is cell-based, human. The protocol:
Preparation of protein extracts for western blotting was performed as described previously. In brief, for western blotting, 1 × 10^6 cells/well were seeded in Petri dishes (ø 6 cm TC Dish (Sarstedt, Numbrecht, Germany) in 5 mL/dish), incubated overnight and treated with drugs in 5 mL/dish for an indicated time. Cells were harvested using a cell scraper, pelleted, and resuspended in the lysis buffer containing protease and phosphatase inhibitors. Further sample preparation and western blotting were performed as previously described with slight modifications. Relative optical density of the detected bands was quantified with Quantity One 4.6 software (Bio-Rad, Hercules, CA, USA). The primary and secondary antibodies used are listed in the Supplementary Information.
22Rv1 cells were seeded in T75 culture bottles (4 × 10^6 cells/bottle in 20 mL/bottle), treated for 48 h and harvested by scratching. The further separation of cytosolic, mitochondrial and nuclear fractions was performed using the Cell Fractionation Kit ab109719 (abcam, Cambridge, MA) as previously described. Mitochondrial and cytosolic fractions were concentrated using Amicon® Ultra-2 Centrifugal Filter device (Cat. No. UFC203024, Merck, Darmstadt, Germany). Nuclear fractions were additionally homogenized using QIAshedder kit (QIAGEN, Hilden, Germany).
On the technique in general: Immunoblotting shows a protein as a band on a membrane.

Take `CC1(C)OC2OC(C(O)COC3=CC(=O)c4cccc(O)c4C3=O)C(O)C2O1` (centres unmarked) [Compound 11]: the pIC50 is 5.30 in data set [1]; 5.30 in data set [1] (Homo sapiens, PNT2, 48 h); 5.43 in data set [2]; 5.37 in data set [3]; 5.51 in [4]; 6.33 in data set [5]. For the same compound, the pIC50 is 6.15 in data set [6] (22Rv1, 48 h of treatment, cancer, read-out: IC50 (22Rv1)); 4.69 in [6] (22Rv1 cells, 2 h treatment, read-out: IC50 after 2 h of treatment); 6.24 in [7]; 5.69 in data set [8]. Also, the “effect of N-acetyl-L-cysteine pre-treatment on cytotoxic activity” value in data set [6] (22Rv1 cells, 1 mM NaC 1 h then co-treatment 48 h, FBS- and glucose-free RPMI) was “significantly suppressed the cytotoxic activity”. Further, the “effect on ROS level” value in data set [9] was “remarkable and significant increase of the ROS level”. Also, in [10], the “effect on ΔΨm” value is given as “quick ΔΨm loss”. Moreover, the “release of mitochondrial proteins AIF and cytochrome C” value in data set [11] is listed as “release of mitochondrial proteins”.

By pIC50 is commonly meant the negative decadic logarithm of the IC50, by convention in mol/L.
